Reference: patent publication US8618153B2, “Hepatitis C virus inhibitors” (Bristol-Myers Squibb Company, priority 2009, dated 2013)

Each compound was assayed on HCV 1b genotype (assay: HCV Replicon assay (HCV-neo replicon cells), 1b genotype). Conditions: Hepatitis C virus; HCV 1b genotype replicon; numeric value; read-out: 1b EC50 (in μM or range).
Type: cell-based
Protocol: An HCV Replicon assay was utilized in the present disclosure, and was prepared, conducted and validated as described in commonly owned PCT/US2006/022197 and in O'Boyle et al., Antimicrob. Agents Chemother., 49(4):1346-1353 (April 2005). Assay methods incorporating luciferase reporters have also been used as described (Apath.com).
HCV-neo replicon cells and replicon cells containing mutations in the NS5A region were used to test the currently described family of compounds. The compounds were determined to have more than 10-fold less inhibitory activity on cells containing mutations than wild-type cells. Thus, the compounds of the present disclosure can be effective in inhibiting the function of the HCV NS5A protein and are understood to be as effective in combinations as previously described in application PCT/US2006/022197 and commonly owned WO 04/014852. Further, the compounds of the present disclosure can be effective against the HCV 1b genotype. It should also be understood that the compounds of the present disclosure can inhibit multiple genotypes of HCV. […] In one embodiment compounds of the present disclosure are inhibitory versus 1a, 1b, 2a, 2b, 3a, 4a, and 5a genotypes. […] The compounds of the present disclosure may inhibit HCV by mechanisms in addition to or other than NS5A inhibition. In one embodiment the compounds of the present disclosure inhibit HCV replicon and in another embodiment the compounds of the present disclosure inhibit NS5A.
`COC(=O)N[C@@H](C)C(=O)N1CCC[C@H]1c1nc(CCc2ccc(CCc3cnc([C@@H]4CCCN4C(=O)[C@H](C)NC(=O)OC)[nH]3)cc2)c[nH]1` [Example 42, methyl ((1S)-2-((2S)-2-(4-(2-(4-(2-(2-((2S)-1-(N-(methoxycarbonyl)-L-alanyl)-2-pyrrolidinyl)-1H-imidazol-4-yl)ethyl)phenyl)ethyl)-1H-imidazol-2-yl)-1-pyrrolidinyl)-1-methyl-2-oxoethyl)carbamate] gave an EC50 of 0.274 µM.

Same assay, conditions: Hepatitis C virus; HCV 1b genotype replicon; value given as range class; read-out: 1b EC50 (in μM or range)
For `COC(=O)N[C@@H](C)C(=O)N1CCC[C@H]1c1nc(/C=C/c2ccc(/C=C/c3cnc([C@@H]4CCCN4C(=O)[C@H](C)NC(=O)OC)[nH]3)cc2)c[nH]1` [Example 37, methyl ((1S)-2-((2S)-2-(4-((E)-2-(4-((E)-2-(2-((2S)-1-(N-(methoxycarbonyl)-L-alanyl)-2-pyrrolidinyl)-1H-imidazol-4-yl)vinyl)phenyl)vinyl)-1H-imidazol-2-yl)-1-pyrrolidinyl)-1-methyl-2-oxoethyl)carbamate], the EC50 was < 0.001 µM. In the case of `COC(=O)N[C@H](C(=O)N1CCC[C@H]1c1nc(/C=C/c2ccc(/C=C/c3cnc([C@@H]4CCCN4C(=O)[C@@H](NC(=O)OC)C(C)C)[nH]3)cc2)c[nH]1)C(C)C` [Example 38, methyl ((1S)-1-(((2S)-2-(4-((E)-2-(4-((E)-2-(2-((2S)-1-((2S)-2-((methoxycarbonyl)amino)-3-methylbutanoyl)-2-pyrrolidinyl)-1H-imidazol-4-yl)vinyl)phenyl)vinyl)-1H-imidazol-2-yl)-1-pyrrolidinyl)carbonyl)-2-methylpropyl)carbamate], the EC50 is reported as < 0.001 µM. With `COC(=O)N[C@H](C(=O)N1CCC[C@H]1c1nc(/C=C/c2ccc(/C=C/c3cnc([C@@H]4CCCN4C(=O)[C@@H](NC(=O)OC)[C@@H](C)OC)[nH]3)cc2)c[nH]1)[C@@H](C)OC` [Example 39, methyl ((1S,2R)-2-methoxy-1-(((2S)-2-(4-((E)-2-(4-((E)-2-(2-((2S)-1-(N-(methoxycarbonyl)-O-methyl-L-threonyl)-2-pyrrolidinyl)-1H-imidazol-4-yl)vinyl)phenyl)vinyl)-1H-imidazol-2-yl)-1-pyrrolidinyl)carbonyl)propyl)carbamate] the EC50 was < 0.001 µM. For `CCN(CC)[C@@H](C(=O)N1CCC[C@H]1c1nc(CCc2ccc(CCc3cnc([C@@H]4CCCN4C(=O)[C@@H](c4ccccc4)N(CC)CC)[nH]3)cc2)c[nH]1)c1ccccc1` [Example 40, (1R)-2-((2S)-2-(4-(2-(4-(2-(2-((2S)-1-((2R)-2-(diethylamino)-2-phenylacetyl)-2-pyrrolidinyl)-1H-imidazol-5-yl)ethyl)phenyl)ethyl)-1H-imidazol-2-yl)-1-pyrrolidinyl)-N,N-diethyl-2-oxo-1-phenylethanamine], the EC50 was < 0.001 µM. For `COC(=O)N[C@@H](C(=O)N1CCC[C@H]1c1nc(CCc2ccc(CCc3cnc([C@@H]4CCCN4C(=O)[C@H](NC(=O)OC)c4ccccc4)[nH]3)cc2)c[nH]1)c1ccccc1` [Example 41, dimethyl (1,4-phenylenebis(2,1-ethanediyl-1H-imidazole-4,2-diyl(2S)-2,1-pyrrolidinediyl((1R)-2-oxo-1-phenyl-2,1-ethanediyl)))biscarbamate], the EC50 was < 0.001 µM. In the case of `COC(=O)N[C@H](C(=O)N1CCC[C@H]1c1nc(CCc2ccc(CCc3cnc([C@@H]4CCCN4C(=O)[C@@H](NC(=O)OC)C(C)C)[nH]3)cc2)c[nH]1)C(C)C` [Example 43, methyl ((1S)-1-(((2S)-2-(4-(2-(4-(2-(2-((2S)-1-((2S)-2-((methoxycarbonyl)amino)-3-methylbutanoyl)-2-pyrrolidinyl)-1H-imidazol-4-yl)ethyl)phenyl)ethyl)-1H-imidazol-2-yl)-1-pyrrolidinyl)carbonyl)-2-methylpropyl)carbamate], the EC50 is reported as 0.001 to 0.01 µM.
